Reference: paper PMC6572184, “New γ-Halo-δ-lactones and δ-Hydroxy-γ-lactones with Strong Cytotoxic Activity” (Molecules, 2019)

Legend:
[1] = tested on: Staphylococcus aureus ATCC 65389; test: Bactericidal activity, CFU counting method; assay type: cell-based; conditions: S. aureus ATCC 65389; 18 h at 37 °C; Control 21.36, Control with DMSO 20.85
Experimental: (§1) The bacterial cultures: Escherichia coli ATCC 8739 and Staphylococcus aureus ATCC 65389 were grown on Luria–Bertani Agar for 18 h at 37 ^∘ C. The strain suspension was prepared in 0.85% saline, with an optical density equivalent to a 0.5 McFarland standard. Next, the following mixtures were prepared: 180 μ L of sterile enriched broth (BTL), 10 μ L of the bacterial suspension and 10 μ L of the tested compound (range 0.1–50 μ g/mL) solubilized in DMSO. As a negative control, only DMSO was added. As a sterility control, 180 μ L of BTL and 20 μ L saline were used. The microtiter plate was incubated at 37 ^∘ C for 18 h. The colony forming unit (CFU) method was used to evaluate the microbial population. The experiment was repeated three times. Gentamicin was used as the reference antibiotic.

[2] = tested on: Escherichia coli ATCC 8739; test: Bactericidal activity, CFU counting method; assay type: cell-based; conditions: E. coli ATCC 8739; for Number of CFU/mL (× 10^7): 18 h at 37 °C, Control 9.47, Control with DMSO 9.30; for less CFU/mL (reduction of the number of CFU/mL): versus control
Experimental: as §1

[3] = tested on: L929 cell lines (mouse fibroblasts); test: MTT reduction cytotoxicity assay; assay type: cell-based; conditions: 24 h
Experimental: (§2) Cell cultures: The L929 mouse fibroblasts and human gastric adenocarcinoma cell line AGS were used for in vitro cytotoxicity assays. The cells were maintained under standard conditions (37 ^∘ C, 5% CO 2 ) in 25 cm^2 tissue culture flasks in RPMI-1640 medium supplemented with 10% fetal bovine serum (FBS) and antibiotics: 100 U/mL penicillin and 100 μ g/mL streptomycin. The cell suspension containing 10 ^8 cells in 1 mL, was obtained by treatment of confluent monolayers with 0.25% trypsin solution, washed and subcultured. Cell cultures were supplemented with medium to maintain them in log phase growth. The viability of the cells was assessed by exclusion of trypan blue dye.
(§3) Measurements of cellular metabolic activity and global growth inhibition: L929 cells were seeded into 96-well plates (2 × 10 ^5 cells/well) for 24 h, at 37 ^∘ C, 5% CO2 . Tested compounds 5a–c, 6a–c, 7a–c, 8a–c, 9b,c, 10b,c, 12a and 13a were diluted serially in RPMI-1640 medium in concentrations of 50, 20, 10, 5, 0.5 and 0.1 μ g/mL, added to the cells (100 μ L/well), and incubated under standard conditions for 24 h. The potential harmful effect of lactones on L929 and AGS cells was assessed by the ability of the cells to reduce 3-(4,5-dimethylthiazol-2-yl)-2,5-diphenyltetrazolium bromide (MTT) to formazan. The solution of MTT (5 mg/mL in PBS), was added to each well and the plates were incubated for 4h at 37 ^∘ C. Formazan crystals were dissolved with acidic isopropanol (0.1 M HCl in absolute isopropanol) and the plates were read in a plate reader (Victor 2) at 570 nm. The percentage of MTT reduction was calculated by comparing the absorbance of treated cells to that of untreated control cells. Results are expressed as the mean percentage of viable cells ± standard deviation (SD) of four independent experiments. Statistical significance was accepted at a p-value < 0.05.

[4] = tested on: AGS cell lines (human gastric adenocarcinoma); test: MTT reduction cytotoxicity assay; assay type: cell-based; conditions: for mean percentage of viable cells ± SD: 24 h
Experimental: as §2, §3

[5] = Observation of purified γ-iodo-δ-lactone isomers (decomposition, translactonization); assay type: physicochemical; conditions: purified trans,trans and cis,trans γ-iodo-δ-lactones; residue an equimolar mixture of trans and cis hydroxylactones
Experimental: Iodolactonization of 4a–c acids was carried out with I2/KI and NaHCO3 in a water/diethyl ether mixture. […] The yield of reactions was in the range of 69–85%. The reaction conditions prevented the direct synthesis of these compounds because the reaction was carried out in an alkaline solution, whereas hydroxylactonization requires an acidic environment. […] and predominantly formed in this reaction. The excess of trans-isomer is usually observed in the synthesis of γ -lactones. However, the reaction initially gave δ -iodo- γ -lactones, which, through a translactonization reaction, were transformed into the final products–hydroxylactones 12a and 13a. This was confirmed by observations of purified isomers trans,trans and cis,trans γ -iodo- δ -lactones 9b and 10b, and 9c and 10c. […] The carbocation was stabilized by the electron lone pairs of the oxygen atom present in the water molecule. The preparation of hydroxylactones from iodolactones has been described thus far only for biotransformation experiments. The synthesis described here allows obtaining these compounds without microorganisms.

| Compound | Number of CFU/mL (× 10^7) [1] | Number of CFU/mL (× 10^7) [2] | mean percentage of viable cells ± SD ([3]; 0.1 μg/mL) | mean percentage of viable cells ± SD ([3]; 0.5 μg/mL) | mean percentage of viable cells ± SD ([3]; 5 μg/mL) | mean percentage of viable cells ± SD ([3]; 10 μg/mL) | mean percentage of viable cells ± SD ([3]; 20 μg/mL) | mean percentage of viable cells ± SD ([3]; 50 μg/mL) | IC50 [4] | mean percentage of viable cells ± SD ([4]; 0.1 μg/mL) | mean percentage of viable cells ± SD ([4]; 0.5 μg/mL) | mean percentage of viable cells ± SD ([4]; 5 μg/mL) | mean percentage of viable cells ± SD ([4]; 10 μg/mL) | mean percentage of viable cells ± SD ([4]; 20 μg/mL) | mean percentage of viable cells ± SD ([4]; 50 μg/mL) | stability of purified isomer (in words) [5] | less CFU/mL (reduction of the number of CFU/mL) [2] |
| --- | --- | --- | --- | --- | --- | --- | --- | --- | --- | --- | --- | --- | --- | --- | --- | --- | --- |
| CC1CC(=O)OC(c2ccccc2)C1I (mixture of isomers) [10b, Cis,trans-tetrahydro-5-iodo-4-methyl-6-phenylpyran-2-one] | 5.92 × 10^7 CFU/mL | 7.65 × 10^7 CFU/mL | 25 ± 0.08% | 20 ± 0.03% | 15 ± 0.08% | 7 ± 0.15% | 5 ± 0.06% | 1 ± 0.02% | 1800 nM | 58 ± 0.07% | 43 ± 0.02% | 37 ± 0.03% | 16 ± 0.09% | 14 ± 0.08% | 10 ± 0.06% | rapid decomposition with release of iodine | – |
| CC1CC(=O)OC(c2ccc(F)cc2)C1I (mixture of isomers) [10c, Cis,trans-6-(4-fluorophenyl)-tetrahydro-5-iodo-4-methylpyran-2-one] | 6.30 × 10^7 CFU/mL | 2.87 × 10^7 CFU/mL | 22 ± 0.05% | 18 ± 0.03% | 12 ± 0.07% | 6 ± 0.09% | 2 ± 0.15% | 2 ± 0.05% | 1700 nM | 38 ± 0.06% | 23 ± 0.15% | 20 ± 0.02% | 13 ± 0.03% | 10 ± 0.07% | 8 ± 0.03% | rapid decomposition with release of iodine | 70–78% |
| CC1CC(=O)OC(c2ccc(F)cc2)C1I (stereo not drawn) [9c, Trans,trans-6-(4-fluorophenyl)-tetrahydro-5-iodo-4-methylpyran-2-one] | 9.76 × 10^7 CFU/mL | 2.43 × 10^7 CFU/mL | 15 ± 0.03% | 12 ± 0.08% | 9 ± 0.06% | 6 ± 0.03% | 3 ± 0.09% | 1 ± 0.05% | 1400 nM | 51 ± 0.10% | 43 ± 0.15% | 35 ± 0.10% | 23 ± 0.02% | 18 ± 0.06% | 15 ± 0.03% | rapid decomposition with release of iodine | 70–78% |
